Here are results for 30 compounds from patent US7598384B2, “Tetrahydroquinolinones and their use as antagonists of metabotropic glutamate receptors” (Merz Pharma GmbH & Co. KGAA, priority 2004, dated 2009).

Where a name gives a salt, the structure may show the parent alone.

With `CC1(C)CC(=O)c2cc(C#N)c(NCc3ccccc3)nc2C1.Cl`, the melting point was 163 to 164 °C.

The compound `CC(Nc1ccc2c(n1)CC1CCCCC1C2=O)c1ccccc1` (stereo not drawn) [Example 112, 2-(1-Phenyl-ethylamino)-6,7,8,9,9a,10-hexahydro-5aH-benzo[g]quinolin-5-one] had a melting point of 156 to 158 °C.

With `O=C1c2ccc(N3CCN(c4ccccc4)CC3)nc2CC2CCCCC12` (stereo not drawn) [Example 114, 2-(4-Phenyl-piperazin-1-yl)-6,7,8,9,9a,10-hexahydro-5aH-benzo[g]quinolin-5-one], the melting point lay in the range of 164 to 166 °C.

`CC1(C)CC(=O)c2ccc(Cc3ccccc3)nc2C1.Cl` had a melting point of 202 to 204 °C.

The compound `CCCCSc1nc2c(cc1C#N)C(=O)CC(C)(C)C2` [Example 1, 2-Butylsulfanyl-7,7-dimethyl-5-oxo-5,6,7,8-tetrahydroquinoline-3-carbonitrile] came in with a melting point of 50 to 52 °C.

As to `CC1(C)CCc2nc(C34CC5CC(CC(C5)C3)C4)ccc2C1=O` (as salt: hydrochloride) [Example 41, 2-Adamantan-1-yl-6,6-dimethyl-7,8-dihydro-6H-quinolin-5-one hydrochloride], the melting point is 203 to 204 °C.

`O=C1c2ccc(Nc3ccccc3)nc2CC2CCCCC12` (stereo not drawn) [Example 111, 2-Phenylamino-6,7,8,9,9a,10-hexahydro-5aH-benzo[g]quinolin-5-one] came in with a melting point of 214 to 216 °C.

Compound `CC(C)COc1ccc2c(n1)CC(C)(C)CC2=O.Cl` had a melting point of 157 to 158 °C.

Consider `CC1(C)CC(=O)c2ccc(C34CC5CC(CC(C5)C3)C4)nc2C1.Cl`, for which the melting point was in the range of 210 to 212 °C.

For the compound `COc1ccc(Nc2ccc3c(n2)CC(C)(C)CC3=O)cc1` [Example 86, 2-(4-Methoxy-phenylamino)-7,7-dimethyl-7,8-dihydro-6H-quinolin-5-one], the melting point lay in the range of 149 to 150 °C.

Compound `CC(C)CSc1nc2c(cc1C#N)C(=O)CC(C)(C)C2` [Example 5, 2-Isobutylsulfanyl-7,7-dimethyl-5-oxo-5,6,7,8-tetrahydroquinoline-3-carbonitrile] displayed a melting point of 75 to 76 °C.

As for `CCCSc1nc2c(cc1C#N)C(=O)CC(C)(C)C2` [Example 2, 7,7-Dimethyl-5-oxo-2-propylsulfanyl-5,6,7,8-tetrahydroquinoline-3-carbonitrile], the melting point was 100 to 102 °C.

Compound `O=C1CC2(CCCCC2)Cc2nc(OCc3ccccc3)ccc21` (as salt: hydrochloride) [Example 25, 2-Benzyloxy-7,7-pentamethylene-7,8-dihydro-6H-quinoline-5-one hydrochloride] returned a melting point of 276 to 277 °C.

Regarding `CCCC1CCc2nc(-c3ccc(OC)cc3)ccc2C1=O` (stereo not drawn) (as salt: hydrochloride) [Example 60, 2-(4-Methoxy-phenyl)-6-propyl-7,8-dihydro-6H-quinolin-5-one hydrochloride], the melting point is 212 to 213 °C.

Compound `CC(C)Sc1nc2c(cc1C#N)C(=O)CC(C)(C)C2` [Example 3, 2-Isopropylsulfanyl-7,7-dimethyl-5-oxo-5,6,7,8-tetrahydroquinoline-3-carbonitrile] yielded a melting point of 135 to 136 °C.

In turn, `O=C1CC2(CCCCC2)Cc2nc(C34CC5CC(CC(C5)C3)C4)ccc21` (as salt: hydrochloride) [Example 27, 2-Adamantan-1-yl-7,7-pentamethylene-7,8-dihydro-6H-quinoline-5-one hydrochloride] showed a melting point of 221 to 222 °C.

`CC1(C)CC(=O)c2ccc(CCc3ccccc3)nc2C1.Cl`: the melting point was 173 to 175 °C.

`COc1ccccc1CCc1ccc2c(n1)CCCC2=O.Cl` displayed a melting point of 160 to 162 °C.

Consider `CCC1CC(=O)c2ccc(-c3ccc(OC)cc3)nc2C1` (stereo not drawn) (as salt: hydrochloride) [Example 70, 7-Ethyl-2-(4-methoxy-phenyl)-7,8-dihydro-6H-quinolin-5-one hydrochloride], for which the melting point fell in the range of 232 to 233 °C.

`C=C(C)CSc1nc2c(cc1C#N)C(=O)CC(C)(C)C2` [Example 4, 7,7-Dimethyl-2-(2-methylallysulfanyl)-5-oxo-5,6,7,8-tetrahydroquinoline-3-carbonitrile] displayed a melting point of 78 to 79 °C.

`Cl.O=C1CCCc2nc(Cc3ccccc3)ccc21` registered a melting point of 185 to 187 °C.

In turn, `CC1(C)CC(=O)c2cc(C#N)c(N3CCCCC3)nc2C1` [Example 7, 7,7-Dimethyl-5-oxo-2-piperidin-1-yl-5,6,7,8-tetrahydro-quinoline-3-carbonitrile] came in with a melting point of 99 to 100 °C.

Compound `CC1(C)CC(=O)c2ccc(OC3CCCCC3)nc2C1.Cl` returned a melting point of 126 to 127 °C.

Compound `CC1(C)CC(=O)c2ccc(NCc3ccccc3)nc2C1.Cl` yielded a melting point of 215 to 216 °C.

The compound `CC1(C)CC(=O)c2ccc(OCc3ccccc3)nc2C1.Cl` displayed a melting point of 87 to 88 °C.

In turn, `COc1cccc(-c2ccc3c(n2)CC2(CCCC2)CC3=O)c1` (as salt: hydrochloride) [Example 59, 2-(3-Methoxy-phenyl)-7,7-tetramethylene-7,8-dihydro-6H-quinolin-5-one hydrochloride] showed a melting point of 233 to 234 °C.

On to `C=C(C)CSc1nc2c(cc1C#N)C(=O)CCC2` [Example 6, 2-(2-Methylallylsulfanyl)-5-oxo-5,6,7,8-tetrahydroquinoline-3-carbonitrile], for which the melting point was in the range of 85 to 86 °C.

On to `CCCCCCc1ccc2c(n1)C(C)CC(C)(C)C2=O` (stereo not drawn) (as salt: hydrochloride) [Example 55, 2-Hexyl-6,6,8-trimethyl-7,8-dihydro-6H-quinolin-5-one hydrochloride], for which the melting point lay within 199 to 200 °C.

As for `CCCCCCc1ccc2c(n1)CC(c1ccc(N(C)C)cc1)CC2=O` (stereo not drawn) (as salt: hydrochloride) [Example 32, 7-(4-Dimethylamino-phenyl)-2-hexyl-7,8-dihydro-6H-quinolin-5-one dihydrochloride], the melting point lay within 195 to 196 °C.

The compound `Cl.O=C1CCCc2nc(C34CC5CC(CC(C5)C3)C4)ccc21` showed a melting point of 214 to 216 °C.
